Reference: patent US20240239781A1, “1H-PYRAZOLE DERIVATIVES AS SIGMA LIGANDS” (ACONDICIONAMIENTO TARRASENSE, priority 2021, published 2024)

Key:
human σ1 receptor = molecular target: T1, human σ1 receptor (Homo sapiens, UniProt Q99720); experiment: Human σ1 receptor radioligand assay ([3H](+)-pentazocine, transfected HEK-293 membranes); settings: class scale, read-out: Binding σ-1 Ki
T1 construct: expressed in transfected cells; host or cells: HEK-293
Experimental: Transfected HEK-293 membranes (7 μg) were incubated with 5 nM of [^3H](+)-pentazocine in assay buffer containing Tris-HCl 50 mM at pH 8. NBS (non-specific binding) was measured by adding 10 μM haloperidol. The binding of the test compound was measured at either one concentration (% inhibition at 1 or 10 μM) or five different concentrations to determine affinity values (Ki). Plates were incubated at 37° C. for 120 minutes. After the incubation period, the reaction mix was then transferred to MultiScreen HTS, FC plates (Millipore), filtered and plates were washed 3 times with ice-cold 10 mM Tris-HCL (pH7.4). Filters were dried and counted at approximately 40% efficiency in a MicroBeta scintillation counter (Perkin-Elmer) using EcoScint liquid scintillation cocktail.

human σ2/TMEM97 receptor = molecular target: T2, human σ2/TMEM97 receptor (Homo sapiens, UniProt Q5BJF2); experiment: Binding assay to human σ2/TMEM97 receptor ([3H]-DTG, transfected HEK-293 membranes); settings: class scale, read-out: Binding σ-2 Ki
T2 construct: expressed in transfected cells; host or cells: HEK-293
Experimental: Transfected HEK-293 membranes (15 μg) were incubated with 10 nM [^3H]-1,3-Di-o-tolylguanidine (DTG) in assay buffer containing Tris-HCl 50 mM at pH 8.0. NSB (non-specific binding) was measured by adding 10 μM haloperidol. The binding of the test compound was measured at either one concentration (% inhibition at 1 or 10 μM) or five different concentrations to determine affinity values (Ki). Plates were incubated at 25° C. for 120 minutes. After the incubation period, the reaction mix was transferred to MultiScreen HTS, FC plates (Millipore), filtered and washed 3 times with ice-cold 10 mM Tris-HCL (pH 8.0). Filters were dried and counted at approximately 40% efficiency in a MicroBeta scintillation counter (Perkin-Elmer) using EcoScint liquid scintillation cocktail.

T1 sequence (Q99720 whole entry): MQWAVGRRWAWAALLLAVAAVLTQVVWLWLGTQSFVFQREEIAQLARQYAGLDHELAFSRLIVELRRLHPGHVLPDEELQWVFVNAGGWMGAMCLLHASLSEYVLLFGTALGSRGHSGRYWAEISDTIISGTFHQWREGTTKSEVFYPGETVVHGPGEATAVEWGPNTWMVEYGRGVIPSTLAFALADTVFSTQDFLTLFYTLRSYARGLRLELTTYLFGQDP
T2 sequence (Q5BJF2 whole entry): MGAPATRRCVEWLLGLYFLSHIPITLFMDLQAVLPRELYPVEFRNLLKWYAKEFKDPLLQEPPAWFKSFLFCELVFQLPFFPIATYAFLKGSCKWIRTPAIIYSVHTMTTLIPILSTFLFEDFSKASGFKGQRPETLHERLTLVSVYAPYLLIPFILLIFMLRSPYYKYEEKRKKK

Row | SMILES | Ki (human σ1 receptor) [µM] | Ki (human σ2/TMEM97 receptor) [µM]
1 | CCn1cc(-c2nn(C)c(Cl)c2C(=O)N2CCC3(CCN(CCC(C)(C)C)CC3)CC2)cn1 [Example 196, (5-Chloro-1′-ethyl-1-methyl-1H,1′H-[3,4′-bipyrazol]-4-yl)(9-(3,3-dimethylbutyl)-3,9-diazaspiro[5.5]undecan-3-yl)methanone] | 0.5 to 1 | < 0.1
2 | CCn1nc(-c2cc(C)on2)c(C(=O)N[C@H]2CC[C@@H](NCCC(C)(C)C)CC2)c1Cl [Example 201, 5-Chloro-N-((1s,4s)-4-((3,3-dimethylbutyl)amino)cyclohexyl)-1-ethyl-3-(5-methylisoxazol-3-yl)-1H-pyrazole-4-carboxamide] | 0.1 to 0.5 | 0.1 to 0.5
3 | Cc1cc(-c2nn(C)c(Cl)c2CN2CCC(CNCC(C)C)CC2)no1 [Example 43, N-((1-((5-Chloro-1-methyl-3-(5-methylisoxazol-3-yl)-1H-pyrazol-4-yl)methyl)piperidin-4-yl)methyl)-2-methylpropan-1-amine] | 0.5 to 1 | 0.5 to 1
4 | CC(C)CCNC1CCCCN(Cc2c(-c3cccc(O)n3)nn(C)c2Cl)C1 (stereo not drawn) [Example 39, 6-(5-Chloro-4-((3-(isopentylamino)azepan-1-yl)methyl)-1-methyl-1H-pyrazol-3-yl)pyridin-2-ol] | 0.5 to 1 | 0.1 to 0.5
5 | CC(C)c1cc(-c2nn(C)c(Cl)c2C(=O)N2CCC3(CCN(CCC(C)(C)C)CC3)CC2)no1 [Example 177, (5-Chloro-3-(5-isopropylisoxazol-3-yl)-1-methyl-1H-pyrazol-4-yl)(9-(3,3-dimethylbutyl)-3,9-diazaspiro[5.5]undecan-3-yl)methanone] | 0.1 to 0.5 | < 0.1
6 | CCc1cc(-c2nn(CC)c(Cl)c2C(=O)NC2CCC3(CC2)CN(CCC(C)(C)C)C3)no1 [Example 137, 5-Chloro-N-(2-(3,3-dimethylbutyl)-2-azaspiro[3.5]nonan-7-yl)-1-ethyl-3-(5-ethylisoxazol-3-yl)-1H-pyrazole-4-carboxamide] | < 0.1 | < 0.1
7 | Cc1cc(-c2nn(C)c(Cl)c2C(=O)N2CCC3(CCN(Cc4ccc(C#N)c(F)c4)CC3)CC2)no1 [Example 131, 4-((9-(5-Chloro-1-methyl-3-(5-methylisoxazol-3-yl)-1H-pyrazole-4-carbonyl)-3,9-diazaspiro[5.5]undecan-3-yl)methyl)-2-fluorobenzonitrile] | 0.5 to 1 | 0.5 to 1
8 | Cc1cc(-c2nn(C)c(Cl)c2CN2CCC3(C2)CN(CCC(C)(C)C)C3)no1 [Example 52, 3-(5-Chloro-4-((2-(3,3-dimethylbutyl)-2,6-diazaspiro[3.4]octan-6-yl)methyl)-1-methyl-1H-pyrazol-3-yl)-5-methylisoxazole] | < 0.1 | < 0.1
9 | Cc1cc(-c2nn(C)c(Cl)c2C(=O)N2CC[C@]3(C2)C[C@H](NCCC(C)(C)C)C3)no1 [Example 169, (5-Chloro-1-methyl-3-(5-methylisoxazol-3-yl)-1H-pyrazol-4-yl)((2s,4r)-2-((3,3-dimethylbutyl)amino)-6-azaspiro[3.4]octan-6-yl)methanone] | > 1 | < 0.1
10 | Cc1cc(-c2nn(C)c(F)c2C(=O)N2CCC3(CCN(CCC(C)(C)C)CC3)CC2)no1 [Example 98, (9-(3,3-Dimethylbutyl)-3,9-diazaspiro[5.5]undecan-3-yl)(5-fluoro-1-methyl-3-(5-methylisoxazol-3-yl)-1H-pyrazol-4-yl)methanone] | 0.5 to 1 | < 0.1
11 | Cc1cc(-c2nn(C)c(Cl)c2C(=O)N2CCCC3(CCN(Cc4ccc(F)c(F)c4)CC3)C2)no1 [Example 128, (5-Chloro-1-methyl-3-(5-methylisoxazol-3-yl)-1H-pyrazol-4-yl)(9-(3,4-difluorobenzyl)-2,9-diazaspiro[5.5]undecan-2-yl)methanone] | 0.1 to 0.5 | < 0.1
12 | CCn1nc(-c2cnn(C(C)C)c2)c(C(=O)NC2CC3(CCN(CCC(C)(C)C)CC3)C2)c1Cl [Example 149, 5-Chloro-N-(7-(3,3-dimethylbutyl)-7-azaspiro[3.5]nonan-2-yl)-1-ethyl-1′-isopropyl-1H,1′H-[3,4′-bipyrazole]-4-carboxamide] | 0.1 to 0.5 | < 0.1
13 | Cc1cc(-c2nn(C)c(Cl)c2CN2CC[C@]3(C2)C[C@H](NCCC(C)(C)C)C3)no1 [Example 75, (2s,4r)-6-((5-Chloro-1-methyl-3-(5-methylisoxazol-3-yl)-1H-pyrazol-4-yl)methyl)-N-(3,3-dimethylbutyl)-6-azaspiro[3.4]octan-2-amine] | 0.5 to 1 | < 0.1
14 | Cc1cc(-c2nn(C)c(Cl)c2C(=O)N2CCCCC(N(C)CCC(C)C)C2)no1 (stereo not drawn) [Example 111, (5-Chloro-1-methyl-3-(5-methylisoxazol-3-yl)-1H-pyrazol-4-yl)(3-(isopentyl(methyl)amino)azepan-1-yl)methanone] | 0.1 to 0.5 | 0.5 to 1
15 | CCCNCC1CCN(Cc2c(-c3cc(C)on3)nn(C)c2Cl)C1 (stereo not drawn) [Example 47, N-((1-((5-Chloro-1-methyl-3-(5-methylisoxazol-3-yl)-1H-pyrazol-4-yl)methyl)pyrrolidin-3-yl)methyl)propan-1-amine] | > 1 | > 1
16 | CCn1nc(-c2cc(C)on2)c(CN2CC3(CCN(CCC(C)(C)C)CC3)CC2=O)c1Cl [Example 225, 2-((5-Chloro-1-ethyl-3-(5-methylisoxazol-3-yl)-1H-pyrazol-4-yl)methyl)-8-(3,3-dimethylbutyl)-2,8-diazaspiro[4.5]decan-3-one] | 0.1 to 0.5 | < 0.1
17 | CCn1nc(-c2cc(C)on2)c(C(=O)N2CCCC3(CN(CCC(C)(C)C)C3)C2)c1Cl [Example 194, (5-Chloro-1-ethyl-3-(5-methylisoxazol-3-yl)-1H-pyrazol-4-yl)(2-(3,3-dimethylbutyl)-2,6-diazaspiro[3.5]nonan-6-yl)methanone] | 0.5 to 1 | < 0.1
18 | Cc1cc(-c2nn(C)c(Cl)c2C(=O)N2CCC[C@H](CNCCC(C)C)C2)no1 [Example 125, (R)-(5-Chloro-1-methyl-3-(5-methylisoxazol-3-yl)-1H-pyrazol-4-yl)(3-((isopentylamino)methyl)piperidin-1-yl)methanone] | > 1 | 0.5 to 1
19 | Cc1cc(-c2nn(C)c(Cl)c2CN2CCCCC(NCCC(C)C)C2)no1 (stereo not drawn) [Example 2, 1-((5-Chloro-1-methyl-3-(5-methylisoxazol-3-yl)-1H-pyrazol-4-yl)methyl)-N-isopentylazepan-3-amine] | 0.5 to 1 | > 1
20 | CCn1nc(-c2cc(C)on2)c(CN2CCCCC(NCCC(C)(C)C)C2)c1Cl (stereo not drawn) [Example 22, 1-((5-Chloro-1-ethyl-3-(5-methylisoxazol-3-yl)-1H-pyrazol-4-yl)methyl)-N-(3,3-dimethylbutyl)azepan-3-amine] | 0.1 to 0.5 | 0.1 to 0.5
21 | CC(C)c1cc(-c2nn(C)c(Cl)c2C(=O)N2CCCC3(CCN(CCC(C)(C)C)CC3)C2)no1 [Example 132, (5-Chloro-3-(5-isopropylisoxazol-3-yl)-1-methyl-1H-pyrazol-4-yl)(9-(3,3-dimethylbutyl)-2,9-diazaspiro[5.5]undecan-2-yl)methanone] | 0.1 to 0.5 | < 0.1
22 | Cc1cc(-c2nn(C)c(Cl)c2C(=O)N2CC3(CCCN(CCC(C)(C)C)C3)C2)no1 [Example 144, (5-Chloro-1-methyl-3-(5-methylisoxazol-3-yl)-1H-pyrazol-4-yl)(6-(3,3-dimethylbutyl)-2,6-diazaspiro[3.5]nonan-2-yl)methanone] | 0.5 to 1 | 0.1 to 0.5
23 | Cc1cc(-c2nn(C)c(Cl)c2CN2CC3(CCN(CCC(C)(C)C)C3)C2)no1 [Example 51, 3-(5-Chloro-4-((6-(3,3-dimethylbutyl)-2,6-diazaspiro[3.4]octan-2-yl)methyl)-1-methyl-1H-pyrazol-3-yl)-5-methylisoxazole] | < 0.1 | < 0.1
24 | Cc1onc(-c2nn(C)c(Cl)c2CN2CCCCC(NCCC(C)C)C2)c1C (stereo not drawn) [Example 37, 1-((5-Chloro-3-(4,5-dimethylisoxazol-3-yl)-1-methyl-1H-pyrazol-4-yl)methyl)-N-isopentylazepan-3-amine] | 0.1 to 0.5 | 0.1 to 0.5
25 | Cc1cc(-c2nn(C)c(Cl)c2CN2CCC(C3(NCCC(C)C)CC3)C2)no1 (stereo not drawn) [Example 62, 1-(1-((5-Chloro-1-methyl-3-(5-methylisoxazol-3-yl)-1H-pyrazol-4-yl)methyl)pyrrolidin-3-yl)-N-isopentylcyclopropanamine] | 0.5 to 1 | 0.1 to 0.5
26 | Cc1cc(-c2nn(C)c(Cl)c2C(=O)NC2CC3(CCN(CCC(C)(C)C)CC3)C2)no1 [Example 106, 5-Chloro-N-(7-(3,3-dimethylbutyl)-7-azaspiro[3.5]nonan-2-yl)-1-methyl-3-(5-methylisoxazol-3-yl)-1H-pyrazole-4-carboxamide] | 0.1 to 0.5 | < 0.1
27 | Cc1cc(-c2nn(C)c(Cl)c2CN2CCCOC(CNCCC(C)C)C2)no1 (stereo not drawn) [Example 64, N-((4-((5-Chloro-1-methyl-3-(5-methylisoxazol-3-yl)-1H-pyrazol-4-yl)methyl)-1,4-oxazepan-2-yl)methyl)-3-methylbutan-1-amine] | 0.1 to 0.5 | 0.1 to 0.5
